# Assay results taken from paper PMC5866173 (Journal of natural products, 2017).
# “Also recorded” adds a separate entry of the source.
# Test system: chloroquine/mefloquine-resistant Dd2 strain of Plasmodium falciparum
# Type: cell-based
# Conditions: for antiplasmodial activity (in words): Dd2 strain of P. falciparum
Compound,antiplasmodial activity (in words),"IC50 (read-out: IC50 against P. falciparum Dd2, chloroquine-resistant Dd2 strain, 72-hour treatment) [µM]"
"CC1=CCCC(C)(CC(=O)C[C@]2(C)CCc3cc(O)cc(C)c3O2)OC1 (single isomer, unassigned) [Compound 6, 1-[(S or R)-2,6-dimethyl-2,3,4,7-tetrahydrooxepin-2-yl]-3-[(S)-6-hydroxy-2,8-dimethylchroman-2-yl]propan-2-one]",weak antiplasmodial activity,–
"CC1=CCCC(C)(CC(=O)C[C@]2(C)CCc3cc(O)cc(C)c3O2)OC1 (single isomer, unassigned) [Compound 7, 1-[(R or S)-2,6-dimethyl-2,3,4,7-tetrahydrooxepin-2-yl]-3-[(S)-6-hydroxy-2,8-dimethylchroman-2-yl]propan-2-one]",weak antiplasmodial activity,–
"C/C(=C/CC/C(C)=C/C(=O)C[C@]1(C)CCc2cc(O)cc(C)c2O1)CO [Compound 2, (3E,7Z)-9-hydroxy-1-[(S)-6-hydroxy-2,8-dimethylchroman-2-yl]-4,8-dimethylnona-3,7-dien-2-one]",weak antiplasmodial activity; also recorded: most potent biological activity among these compounds,–
"C/C(=C\CC/C(C)=C/C(=O)C[C@]1(C)CCc2cc(O)cc(C)c2O1)CO [Compound 1, (3E,7E)-9-hydroxy-1-[(S)-6-hydroxy-2,8-dimethylchroman-2-yl]-4,8-dimethylnona-3,7-dien-2-one]",inactive,–
"COc1cc(C)c2c(c1)CC[C@@](C)(CC(=O)/C=C(\C)CC/C=C(\C)CO)O2 [Compound 5, (3E,7E)-9-hydroxy-1-[(S)-6-methoxy-2,8-dimethylchroman-2-yl]-4,8-dimethylnona-3,7-dien-2-one]",weak antiplasmodial activity; also recorded: moderately active,–
"(R)-2-[(3E,7E)-9-hydroxy-4,8-dimethylnona-3,7-dien-1-yl]-2,8-dimethyl-2H-chromen-6-ol [Compound 9]",–,> 117
